Laboratory results: patent US6410537B1, “Compositions having neuroprotective and analgesic activity” (The United States of America as represented by the …, priority 1994, dated 2002)

Legend:
[1] = Convulsive activity after intracerebral ventricular dosing; format: in vivo; conditions: rats; intracerebral ventricular dosages up to 800 μg
neurons = assay: Antagonism of glutamate neurotoxic calcium flux (intracellular calcium response type); format: cell-based
Procedure: (§1) One particularly valuable enantiomer of the invention is the (+)-8 compound designated SNC80. […] To obtain better understanding of the benefits obtained by use of the compounds of the invention, beneficial effects of the compound were assessed in a model for evaluation of CNS excito-toxicity in an in vitro neuronal culture model. The neurotoxicity/neuroprotection was assessed 18 hours after exposure to the excitotoxin glutamate.

neuronal cell cultures = assay: Neuroprotection against glutamate toxicity in neuronal cell cultures, measured by LDH release; format: cell-based; conditions: for LDH release: mean ± s.e., 18 hours after glutamate exposure
Procedure: as §1
The neuroprotective effect of the SNC80 against glutamate toxicity in neuronal cell cultures was determined using a standard method of quantifying neuronal damage by measuring LDH release, since LDH is a […] enzyme released from damaged neurons into the culture media when neuronal cells are injured. One way in which neuronal cells may be damaged is by exposure to glutamate, a common agent used to induce neuronal damage. In the instant case, the damaging effect of gluamate on these cultures as shown to be overcome by exposure to an active agent of the invention.

[2] = Glutamate (80 μM) + SNC80 20 μM
[3] = Glutamate (80 μM) + SNC80 40 μM

C=CCN1C[C@H](C)N([C@H](c2ccc(C(=O)N(CC)CC)cc2)c2cccc(OC)c2)C[C@H]1C [SNC80]
Convulsive activity [1]: failed to elicit convulsive activity
Response Type biphasic (number of neurons) (neurons; Glutamate + 50 μM, 10 neurons): 6
Response Type sustained (neurotoxic) (number of neurons) (neurons; Glutamate + 50 μM, 10 neurons): 1
Response Type transient (number of neurons) (neurons; Glutamate + 50 μM, 10 neurons): 3
Response Type biphasic (number of neurons) (neurons; Glutamate + 100 μM, 21 neurons): 17
Response Type sustained (neurotoxic) (number of neurons) (neurons; Glutamate + 100 μM, 21 neurons): 1
Response Type transient (number of neurons) (neurons; Glutamate + 100 μM, 21 neurons): 3
Intracellular Ca++ concentration as indicator of glutamate-induced neuronal injury (neurons; glutamate-treated neurons): beneficial shift in the intracellular Ca^++ concentration
Neuroprotection (LDH measurements and morphological evaluation) (neuronal cell cultures; 18 hours after exposure to glutamate, compared to glutamate alone): concentration-dependent neuroprotection
% neuroprotection (neuronal cell cultures; Glutamate (80 μM) + SNC80 5 μM): 17%
LDH release (neuronal cell cultures; Glutamate (80 μM) + SNC80 5 μM): 98.6 ± 4.5 Units ML
% neuroprotection (neuronal cell cultures; [2]): 43%
LDH release (neuronal cell cultures; [2]): 91.0 ± 2.0 Units ML
% neuroprotection (neuronal cell cultures; [3]): 63%
LDH release (neuronal cell cultures; [3]): 84.7 ± 3.4 Units ML
